Measured values as given in patent US12569563B2, “Selective HDAC6 degraders and methods of use thereof” (DANA-FARBER CANCER INSTITUTE, INC., priority 2019, dated 2026).

Experiments:
[1] = tested on: other identified HDAC proteins; assay: Multiplexed TMT mass spectrometry proteomics in Kelly cells, other HDAC abundance; format: cell-based, human; details: 1 μM, 2, 4, 8, and 16 hours
Description: (§1) Lysis buffer (8 M Urea, 50 mM NaCl, 50 mM 4-(2hydroxyethyl)-1-piperazineethanesulfonic acid (EPPS) pH 8.5, protease and phosphatase inhibitors from Roche®) were added to the cell pellets and homogenized by 20 passes through a 21 gauge (1.25 in. long) needle to achieve a cell lysate with a protein concentration between 1-4 mg mL^−1. A micro-BCA assay (Pierce™) was used to determine the final protein concentration in the cell lysate. 200 μg of protein for each sample were reduced and alkylated as described above.
Proteins were precipitated using methanol/chloroform. Four volumes of methanol were added to the cell lysate, followed by one volume of chloroform, and finally three volumes of water. The mixture was vortexed and centrifuged to separate the chloroform phase from the aqueous phase. […]
(§2) Anhydrous ACN was added to each peptide sample to a final concentration of 30% v/v, and labeling was induced with the addition of TMT reagent to each sample at a ratio of 1:4 peptide:TMT label. […] The sample channels were combined at a 1:1:1:1:1:1:1:1:1:1:1 ratio, desalted using Cis solid phase extraction cartridges (Waters) and analyzed by LC-MS for channel ratio comparison. Samples were then combined using the adjusted volumes determined in the channel ratio analysis and dried down in a speed vacuum. […]

[2] = molecular target: T1, HDAC6 (Homo sapiens, UniProt Q9UBN7); assay: Multiplexed TMT mass spectrometry proteomics in Kelly cells, HDAC6 abundance; format: cell-based; set-up: endogenous in cells; host or cells: Kelly cells
T1 sequence (Q9UBN7 1-1215): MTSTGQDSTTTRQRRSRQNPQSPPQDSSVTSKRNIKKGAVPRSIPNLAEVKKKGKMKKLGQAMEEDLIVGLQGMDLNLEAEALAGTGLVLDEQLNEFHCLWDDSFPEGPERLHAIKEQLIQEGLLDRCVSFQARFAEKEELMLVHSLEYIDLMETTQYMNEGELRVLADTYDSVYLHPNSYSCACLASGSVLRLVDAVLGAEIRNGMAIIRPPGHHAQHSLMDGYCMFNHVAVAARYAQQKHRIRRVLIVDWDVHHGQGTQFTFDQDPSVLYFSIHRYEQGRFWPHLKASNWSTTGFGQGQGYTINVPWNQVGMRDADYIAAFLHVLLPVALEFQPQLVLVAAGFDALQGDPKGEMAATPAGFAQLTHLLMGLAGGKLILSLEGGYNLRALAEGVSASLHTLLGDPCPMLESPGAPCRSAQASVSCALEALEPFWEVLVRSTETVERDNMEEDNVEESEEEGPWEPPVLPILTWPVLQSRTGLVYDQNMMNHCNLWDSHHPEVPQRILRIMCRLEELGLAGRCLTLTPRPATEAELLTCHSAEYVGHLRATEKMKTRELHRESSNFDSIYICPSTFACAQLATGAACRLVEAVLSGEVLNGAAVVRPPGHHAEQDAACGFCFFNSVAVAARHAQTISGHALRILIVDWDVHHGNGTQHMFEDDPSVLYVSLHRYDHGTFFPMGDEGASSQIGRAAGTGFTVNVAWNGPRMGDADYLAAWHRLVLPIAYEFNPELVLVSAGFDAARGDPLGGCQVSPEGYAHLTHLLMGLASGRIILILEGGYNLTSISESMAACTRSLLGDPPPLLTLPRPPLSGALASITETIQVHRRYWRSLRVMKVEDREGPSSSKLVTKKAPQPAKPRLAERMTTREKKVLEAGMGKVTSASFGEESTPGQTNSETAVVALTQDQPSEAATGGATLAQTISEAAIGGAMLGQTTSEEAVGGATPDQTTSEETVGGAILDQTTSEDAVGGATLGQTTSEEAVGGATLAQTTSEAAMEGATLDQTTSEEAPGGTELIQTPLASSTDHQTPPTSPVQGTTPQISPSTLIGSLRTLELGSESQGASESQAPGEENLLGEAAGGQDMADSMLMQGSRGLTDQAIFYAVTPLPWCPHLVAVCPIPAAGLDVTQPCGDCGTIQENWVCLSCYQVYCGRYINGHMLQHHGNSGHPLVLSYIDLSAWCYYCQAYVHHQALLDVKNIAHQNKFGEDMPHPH
Description: as §1
Proteins were precipitated using methanol/chloroform. Four volumes of methanol were added to the cell lysate, followed by one volume of chloroform, and finally three volumes of water. The mixture was vortexed and centrifuged to separate the chloroform phase from the aqueous phase. The precipitated protein was washed with three volumes of methanol, centrifuged and the resulting washed precipitated protein was allowed to air dry. The precipitated protein was resuspended in 4 M Urea, 50 mM HEPES pH 7.4, followed by dilution to 1 M urea with the addition of 200 mM EPPS, pH 8. Proteins were first digested with LysC (1:50; enzyme:protein) for 12 hours at room temperature. The LysC digestion was diluted to 0.5 M Urea with 200 mM EPPS pH 8 followed by digestion with trypsin (1:50; enzyme:protein) for 6 hours at 37° C. Tandem mass tag (TMT) reagents (Thermo Fisher Scientific™) were dissolved in anhydrous acetonitrile (ACN) according to manufacturer's instructions.
as §2

course of HDAC6 protein levels, time course (FIG. 4) ([2]; 1 μM, over the course of 16 hours): continued to decrease
SMILES: CN(C(=O)CCCNc1cccc2c1C(=O)N(C1CCC(=O)NC1=O)C2=O)c1ccc(NC(=O)CCCCCCC(=O)NO)cc1 (stereo not shown) [Compound 1, N^1-(4-(4-((2-(2,6-dioxopiperidin-3-yl)-1,3-dioxoisoindolin-4-yl)amino)-N-methylbutanamido)phenyl)-N^8-hydroxyoctanediamide]
change in cellular protein levels of other identified HDAC proteins (heat map FIG. 5) [1]: did not affect the cellular protein levels of the other identified HDAC proteins | change in cellular HDAC6 protein levels vs DMSO (heat map FIG. 5) ([2]; 1 μM, 2, 4, 8, and 16 hours): induced down regulation of cellular HDAC6 protein levels | change in HDAC6 protein levels vs DMSO, time course (FIG. 4) ([2]; 1 μM, after 2 hours): significant reduction in HDAC6 protein levels
